Laboratory results: article PMC5242521 (PLoS ONE, 2017)
Like-named read-outs stand apart in the source and are kept apart here.

Tests used:
Type in all cases: cell-based
[1] = target: T1, OCT1 (Homo sapiens, UniProt O15245); test: Trans-stimulation assay of TEA uptake in OCT1-transfected HEK293 cells; details: pre-loading 60 min with 100 μM pyrethroid or 2 mM unlabeled TEA; HEK-OCT1 cells
T1 sequence (O15245 1-554): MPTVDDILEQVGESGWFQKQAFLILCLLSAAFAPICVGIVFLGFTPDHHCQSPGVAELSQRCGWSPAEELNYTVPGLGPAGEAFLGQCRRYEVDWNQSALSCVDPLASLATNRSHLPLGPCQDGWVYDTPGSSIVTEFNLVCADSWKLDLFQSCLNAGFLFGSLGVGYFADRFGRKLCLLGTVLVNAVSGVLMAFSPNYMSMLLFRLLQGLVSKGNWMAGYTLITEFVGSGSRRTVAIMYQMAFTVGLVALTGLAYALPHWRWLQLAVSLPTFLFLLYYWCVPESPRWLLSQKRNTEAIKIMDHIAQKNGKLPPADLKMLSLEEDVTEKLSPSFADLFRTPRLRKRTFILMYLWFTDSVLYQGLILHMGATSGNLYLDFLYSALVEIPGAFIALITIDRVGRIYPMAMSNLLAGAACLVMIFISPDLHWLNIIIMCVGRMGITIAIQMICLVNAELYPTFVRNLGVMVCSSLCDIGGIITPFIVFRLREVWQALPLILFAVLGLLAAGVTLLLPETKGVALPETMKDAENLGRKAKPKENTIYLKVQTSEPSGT
Protocol: Trans-stimulation assays were performed as previously described. Briefly, OCT1-transfected HEK293 cells were first preloaded with 2 mM unlabeled TEA or 100 μM pyrethroid for 60 min at 37°c in the transport assay medium described above. After washing twice with PBS, cells were next re-incubated in transport assay medium containing 29 μM [1-^14C]-TEA for 5 min at 37°C. After washing twice with PBS, cells were lysed in distilled water and intracellular accumulation of [1-^14C]-TEA was then determined by scintillation counting.
Intracellular accumulation of TEA was then determined by scintillation counting. […] After washing, cells were next re-incubated with 29 μM [1-^14C]-TEA for 5 min at 37°C. Intracellular accumulation of [1-^14C]-TEA was then determined by scintillation counting.

[2] = target: T2, MATE1 (Homo sapiens, UniProt Q96FL8); test: MATE1 activity: TEA accumulation in HEK-MATE1 cells; details: for inhibition at 100 μM: human, pH 8.4
T2 construct: host or cells: HEK293
T2 sequence (Q96FL8 1-570): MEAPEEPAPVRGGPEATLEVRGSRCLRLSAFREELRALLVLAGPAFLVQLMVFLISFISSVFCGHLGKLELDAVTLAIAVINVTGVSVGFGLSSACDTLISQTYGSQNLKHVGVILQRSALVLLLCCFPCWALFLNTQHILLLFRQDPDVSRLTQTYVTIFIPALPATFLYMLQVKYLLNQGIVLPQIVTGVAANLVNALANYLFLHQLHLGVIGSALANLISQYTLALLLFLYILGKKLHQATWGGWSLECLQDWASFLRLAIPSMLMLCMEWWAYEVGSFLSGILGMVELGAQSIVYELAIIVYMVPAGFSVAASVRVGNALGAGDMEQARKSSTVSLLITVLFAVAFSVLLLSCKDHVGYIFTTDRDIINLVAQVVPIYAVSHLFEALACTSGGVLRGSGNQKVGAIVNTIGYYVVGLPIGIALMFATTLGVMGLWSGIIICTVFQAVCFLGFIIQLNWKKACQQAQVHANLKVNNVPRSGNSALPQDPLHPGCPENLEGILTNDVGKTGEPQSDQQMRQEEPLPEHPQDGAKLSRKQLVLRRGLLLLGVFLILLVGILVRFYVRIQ
Protocol: The initial tested concentration of pyrethroids was 100 μM.

[3] = target: T3, MATE2-K (Homo sapiens, UniProt Q86VL8); test: MATE2-K activity: TEA accumulation in HEK-MATE2-K cells
T3 construct: expressed in transfected cells; host or cells: HEK293
Protocol: The effects of pyrethroids on activity of ABC and SLC transporters were determined through measuring cellular accumulation or retention of fluorescent or radiolabeled reference substrates for transporters, in the presence or absence of reference inhibitors, as previously described [41].
For accumulation assays (performed for all transporters, excepted BCRP), transporter-expressing cells usually cultured in 48-well plates were first incubated at 37°C with reference substrates in the absence (control) or presence of pyrethroids or reference inhibitors, in a well-defined transport assay medium [42], consisting of 136 mM NaCl, 5.3 mM KCl, 1.1mM KH2PO4, 0.8 mM MgSO4, 1.8 mM CaCl2, 10 mM HEPES, 11 mM D-glucose and adjusted to pH = 7.4 (excepted for MATE transporter assays, for which pH was set to 8.4). The nature of substrates and reference inhibitors and the incubation times with substrates, that varied according to the transporter, were selected in agreement with previous studies [41, 43] and are indicated in S3 Table. The total incubation volume with substrates was 200 μL/well. After washing twice in phosphate-buffered saline (PBS) (200 μL/well/washing), cells were lysed in distilled water (155 μL/well). An aliquot of cell lysate (5 μL) was then taken for determining cellular protein content by the Bradford method [44]. The rest of lysate (150 μL/well) was used for measuring intracellular accumulation of reference substrates by scintillation counting or spectrofluorimetry using a SpectraMax Gemini SX spectrofluorometer (Molecular Devices, Sunnyvale, CA, USA) (excitation and emission wavelengths were 485 and 535 nm, respectively, for rhodamine 123 and fluorescein, and 355 and 460 nm, respectively, for DAPI).
Intracellular concentrations of reference substrates were initially expressed as fluorescence arbitrary units (for fluorescent dye substrates) or as moles (for radiolabeled substrates) and normalized to cellular protein content, determined by the Bradford method [44]. […]

[4] = target: T1, OCT1; test: Dopamine accumulation in OCT1-transfected HEK293 cells
Protocol: HEK-MOCK and HEK-OCT1 cells were incubated with transport assay medium containing 11 nM 3,4-[Ring-2,5,6-^3H]-dopamine, in the absence or presence of the reference OCT1 inhibitor verapamil or of pyrethroids for 5 min at 37°C in the transport assay medium described above. After washing twice with PBS, cells were lysed in distilled water and intracellular accumulation of dopamine was finally measured by scintillation counting.
(A) HEK-OCT1 and HEK-MOCK cells were incubated with 11 nM 3,4-[Ring-2,5,6-^3H]-dopamine in the absence or presence of the reference OCT1 inhibitor verapamil (100 μM) for 5 min at 37°C. Intracellular accumulation of 3,4-[Ring-2,5,6-^3H]-dopamine was then determined by scintillation counting. […] Intracellular accumulation of 3,4-[Ring-2,5,6-^3H]-dopamine was then determined by scintillation counting. Data are expressed as percentages of OCT1-mediated transport of dopamine in control pyrethroid-unexposed cells, determined by subtracting accumulation of dopamine in HEK-MOCK cells from that in HEK-OCT1 cells in the absence of pyrethroids, arbitrarily set at 100% and indicated by a dotted line on the graph.

T3 sequence (Q86VL8 1-566 isoform Q86VL8-3): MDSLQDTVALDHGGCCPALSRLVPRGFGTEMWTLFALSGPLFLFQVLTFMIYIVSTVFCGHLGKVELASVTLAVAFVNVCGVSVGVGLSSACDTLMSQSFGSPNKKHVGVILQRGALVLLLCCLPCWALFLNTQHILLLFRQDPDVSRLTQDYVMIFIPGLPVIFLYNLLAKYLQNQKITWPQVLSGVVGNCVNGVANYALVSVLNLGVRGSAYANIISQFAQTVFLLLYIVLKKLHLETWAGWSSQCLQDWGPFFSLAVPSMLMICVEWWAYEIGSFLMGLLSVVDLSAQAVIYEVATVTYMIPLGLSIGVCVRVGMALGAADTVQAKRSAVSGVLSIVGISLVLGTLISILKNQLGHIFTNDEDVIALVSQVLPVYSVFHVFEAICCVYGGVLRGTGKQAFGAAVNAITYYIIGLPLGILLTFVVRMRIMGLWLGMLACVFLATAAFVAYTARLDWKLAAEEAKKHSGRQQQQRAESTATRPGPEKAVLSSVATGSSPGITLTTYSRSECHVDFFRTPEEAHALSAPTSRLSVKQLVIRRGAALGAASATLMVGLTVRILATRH

Structure (SMILES) | effect of pre-loading on radiolabeled TEA uptake (trans-stimulation assay) [1] | IC50 [2] | inhibition at 100 μM [2] | effect on MATE2-K activity ([3]; pyrethroid up to 100 μM, HEK-MATE2-K cells, TEA) | effect on MATE2-K activity ([3]; pyrethroid up to 100 μM, HEK-MATE2-K cells, TEA, listed as Allethrin) | effect on OCT1-mediated transport of dopamine ([4]; pyrethroid 10, 100 or 300 μM, 11 nM dopamine, 5 min) | inhibition at 100 μM ([2]; pyrethroid 100 μM, HEK-MATE1 cells, TEA, read-out: inhibition of MATE1 activity) | effect on MATE2-K activity [3] | effect on OCT1-mediated dopamine uptake ([4]; pyrethroid 10 μM)
C=CCC1=C(C)C(OC(=O)C2C(C=C(C)C)C2(C)C)CC1=O (centres unmarked) [allethrin] | trans-inhibition | 50.2 µM | > 79% | failed to alter | No effect (up to 100 μM) | significantly inhibit | – | – | –
CC(C)=CC1C(C(=O)OCN2C(=O)C3=C(CCCC3)C2=O)C1(C)C (centres unmarked) [tetramethrin] | trans-inhibition | 47.5 µM | – | – | – | – | > 79% | No effect (up to 100 μM) | failed to significantly alter
